This note sets out measurements from ChEMBL document CHEMBL5512617, “Tackling Influenza A virus by M2 ion channel blockers: Latest progress and limitations” (Eur J Med Chem, 2024).

The subject of experiment [1] is Influenza A virus. The experiment is described as follows: Antiviral activity against influenza A virus harboring wild type M2 ion channel infected in MDCK cells assessed as viral growth inhibition preincubated with cells for 30 mins followed by viral infection and measured after 72 hrs by CCK-8 assay. It counts as functional, organism-based. In general terms: Formazan colour is commonly taken as a measure of viable cells.

For experiment [2], the system named is Influenza A virus. The experiment is classed as functional, organism-based, A/WSN/33. As to conditions: mdck.
Experiment [3] has as its system Influenza A virus. The experiment is classed as functional, organism-based. As to conditions: A/WSN/33, MDCK, 48 h.
The test system of experiment [4] is Influenza A virus. The experiment is classed as functional, organism-based. The following applies: A/WSN/33, MDCK, 48 h. The source holds these as a separate data set.
The test system of experiment [5] is Influenza A virus. The experiment is classed as functional, organism-based, A/WSN/33. The following applies: mdck. The source holds these as a separate data set.
Experiment [6] has as its system Influenza A virus. The experiment is classed as functional, organism-based, A/WSN/33. As to conditions: mdck. The source holds these as a separate data set.
Experiment [7] deals with Influenza A virus. The experiment is classed as functional, organism-based, A/WSN/33. As to conditions: mdck. The source holds these as a separate data set.
Experiment [8] deals with Influenza A virus. The experiment is classed as functional, organism-based, A/WSN/33. As to conditions: mdck. The source holds these as a separate data set.
Experiment [9] concerns Influenza A virus. The experiment is classed as functional, organism-based, A/WSN/33. As to conditions: mdck. This is another data set of the same source.
Experiment [10] concerns Influenza A virus. It counts as functional, organism-based, A/WSN/33 (H1N1). As to conditions: mdck.
The test system of experiment [11] is Influenza A virus. It counts as functional, organism-based. As to conditions: A/HK/68 (H3N2), MDCK.

In general, IC50 refers to the concentration at which inhibition is half-maximal. Regarding `C[C@H]1[C@H](N)C[C@@H]2C[C@H]1C2(C)C`, the IC50 in [1] (Influenza A virus, MDCK) came to 0.12 µM.
By EC50 is commonly meant the concentration that produces a half-maximal response. Low values mean higher potency in that assay, high ones lower potency in that assay. With `COc1ccc(CNC23CC4CC(CC(C4)C2)C3)c(O)c1`, the EC50 in [2] was 1.13 µM; in experiment [3], 8.74 µM.
As for `CC1(C)[C@@H]2CC[C@@]1(C)[C@@H](CN)C2` [listing 1 of 2 here], the 50% inhibitory concentration (IC50) in experiment [1] (Influenza A virus, MDCK) was determined as 0.29 µM.
As for `CC1(C)[C@@H]2CC[C@@]1(C)[C@@H](CN)C2` [listing 2 of 2 here], the IC50 in experiment [1] (mdck) was determined as 0.49 µM.
On to `COc1ccc(CNc2ccc(C34CC5CC(CC(C5)C3)C4)cc2)c(O)c1`, for which the half-maximal effective concentration (EC50) in [2] came out at 0.66 µM; in [4], 0.66 µM; in experiment [5], 21.6 µM; in [6] it was 17.4 µM; in experiment [7] it was 22.5 µM; in [8], 48 µM. The EC50 was 8.04 µM in experiment [3] and 55 µM in [9].
For `Cc1cc(/C(=N\O)[C@@H]2C[C@@H]3C[C@H](C2C)C3(C)C)sc1Br` (stereo not given in full), the values for the EC50 in experiment [10] and in [11] were 5.97 µM and 7.11 µM, respectively.
Take `Cc1cc(/C(=N\O)[C@@H]2C[C@@H]3C[C@H](C2C)C3(C)C)sc1Cl` (stereo not given in full): the concentration for a half-maximal effect (EC50) in experiment [10] stood at 2.45 µM; in experiment [11] it was 3.29 µM.
With `CC1[C@H]2C[C@@H](C[C@H]1/C(=N/O)c1cc(Cl)c(Cl)s1)C2(C)C` (stereo not given in full), the EC50 was determined as 10.2 µM in [10] and 9.44 µM in experiment [11].
For the compound `COc1ccc(CNC23CC4C5CC6CC4C(C2)C(C6)C5C3)c(O)c1`, the EC50 in [2] is 0.29 µM; in experiment [4], 0.29 µM; in experiment [5], 17.3 µM; in experiment [6], 21.2 µM; in [7], 38.4 µM; in experiment [8], 55.8 µM. In addition, the concentration giving a half-maximal response (EC50) turned out to be 22 µM in experiment [3] and 47.5 µM in experiment [9].
As to `CC(N)[C@H]1C[C@H]2CC[C@]1(C)C2(C)C` (stereo not given in full), the half-maximal inhibitory concentration (IC50) in [1] (Influenza A virus, MDCK) was 0.1 µM.
As to `Cc1cc(/C(=N\O)[C@@H]2C[C@@H]3C[C@H](C2C)C3(C)C)sc1C` (stereo not given in full), the EC50 in experiment [10] amounted to 30.2 µM; in experiment [11] it was 4.84 µM.
As for `Cc1ccc(/C(=N\O)[C@@H]2C[C@@H]3C[C@H](C2C)C3(C)C)s1` (stereo not given in full), the concentration for a half-maximal effect (EC50) in experiment [10] was found to be 11.9 µM; in [11], 29.1 µM.
Regarding `COc1ccc(CNC(C)(C)C23CC4CC(CC(C4)C2)C3)c(O)c1`, the EC50 is 0.09 µM in experiment [2]; 0.13 µM in [4]; 1.8 µM in experiment [5]; 19.9 µM in [6]; 43.9 µM in experiment [7]; 19.2 µM in experiment [8]. For the same compound, it took 20.9 µM to reach a half-maximal effect in [3] (EC50).
For the compound `COc1ccc(CNC23CC4C5CC6C7CC8CC6C(C5C2)C(C8)(C3)C74)c(O)c1`, the midpoint of the response in [2], the EC50, lay at 8.1 µM. In other words, the single-digit micromolar range.
As for `CC1[C@H]2C[C@@H](C[C@H]1/C(=N/O)c1cccs1)C2(C)C` (stereo not given in full), the half-maximal effective concentration (EC50) in experiment [10] was found to be 11.8 µM; in experiment [11], 12.4 µM.
Take `Cc1csc(/C(=N\O)[C@@H]2C[C@@H]3C[C@H](C2C)C3(C)C)c1` (stereo not given in full): the results for the EC50 in experiment [10] and in experiment [11] were 14.8 µM and 10.8 µM, respectively.
`NC12CC3CC(CC(C3)C1)C2` [AMANTADINE]: the IC50 in experiment [1] (Influenza A virus, MDCK) came out at 0.5 µM.
